Reference: patent US20240391928A1, “COMPOSITIONS FOR THE TREATMENT OF FOOD AND CHEMICAL ADDICTION AND METHODS OF MAKING AND USING SAME” (Duke University, priority 2021, published 2024)

Legend:
Assay type in all cases: cell-based
[1] = target: T1, hGHSR1a^WT in Gαq/11 KO HEK293/S cells (Homo sapiens, UniProt Q92847); assay: iCa2+ in Gαq/11 KO HEK293/S cells; conditions: 10 μM ligand
T1 construct: expressed in transfected cells; SRF-RE reporter); HEK293/S Gαq/11 KO and parental WT (iCa2+)
Description: (§1) For experiments with WT and Gt KO HEK293/S cells, […] of hGHSR1a^WT, 10 μg of miAEQ, and 2.5 μg of pcDNA3.1 was transiently transfected into 10 cm dishes and incubated overnight. […] Twenty-four hours later, experiments proceeded in accordance with the procedures described above. To control for any possible kinetic differences in genetically modified cell lines or GHSR1a variants, the average ligand-induced response over 10 seconds was calculated, then normalized by dividing the L-miAeq by the L-miAeq plus the Lysis-miAeq and normalized to the appropriate control/reference condition.

hGHSR1a^WT = hGHSR1a^WT (Homo sapiens, UniProt Q92847); assay: Gαq-dependent intracellular Ca2+ mobilization (iCa2+, miAeq); parameters: HEK293/T (transient); HEK293S Gαq knockout (transient, NanoBiT Gαq); conditions: for Calcium signaling ECmax (%) / EC50: secondary assay of HTS hits; for Calcium signaling ECmax (%): normalized to L585; for EC50: read-out: Calcium signaling EC50
Description: Gαq-Dependent Intracellular Ca^2+ Mobilization. […] Cells were split into and seeded into 10 cm dishes without antibiotic selection and grown to confluency overnight. The next morning, cells were serum starved in 10 mL of clear opti-MEM (supplemented with L-glutamine and HEPES; Gibco, Waltham, MA) for 3-4 hours in a 37° C. incubator with 5% CO2. Then, 25 μL of coelenterazine H (NanoLight Technology, Pinetop, AZ) was added to each 10 mL dish and incubated for another 1-2 hours. For antagonist assays, test compounds were either added directly to the media in 10 cm dishes, or cells were collected by gentle washing/trituration and plated onto white, clear-bottomed 96-well plates for 30 minutes—1 hour. Once the coelenterazine H (or antagonist) incubation was complete, cells were harvested from the 10 cm dish by gentle washing/trituration and collected in a 15 mL conical tube. Cell suspensions were then immediately subjected to assay by injecting cells onto a white, clear-bottomed 96-well plate containing 2× test compounds. Luminescence was read without delay and for 10 seconds per well. To control for cell number variability, cells were lysed in 2× lysis buffer (100 mM CaCl2+0.2% Triton-X) immediately following the assay. The max ligand-induced response (Ca^2+ mobilization: net-miAeq) over 10 seconds was normalized by dividing the ligand-induced luminescence counts (L-miAeq) by the ligand-induced luminescence counts (L-MiAeq) plus the luminescence measured upon cell lysis (Lysis-miAeq). Relative, lysis-normalized data were then normalized to the appropriate control/reference condition.
as §1

[2] = test system: human hGHSR1a-vasopressin receptor 2 tail chimera; assay: β-arr2^GFP translocation, compound screening (U2OS); conditions: secondary assay of HTS hits; for Beta-arrestin translocation ECmax (%): normalized to L585; for EC50: read-out: Beta-arrestin translocation EC50

hGHSR1a^WT, sequence (Q92847 whole entry): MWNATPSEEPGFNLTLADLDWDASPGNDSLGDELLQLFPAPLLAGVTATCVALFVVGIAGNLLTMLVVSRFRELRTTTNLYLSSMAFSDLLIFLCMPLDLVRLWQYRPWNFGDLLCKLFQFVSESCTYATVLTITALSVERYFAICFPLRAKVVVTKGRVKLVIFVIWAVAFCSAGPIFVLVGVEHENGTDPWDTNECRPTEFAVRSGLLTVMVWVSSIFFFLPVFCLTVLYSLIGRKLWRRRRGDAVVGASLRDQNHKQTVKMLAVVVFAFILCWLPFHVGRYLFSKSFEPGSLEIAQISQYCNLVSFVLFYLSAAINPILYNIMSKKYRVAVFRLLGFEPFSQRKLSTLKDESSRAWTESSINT
T1 sequence (Q92847 whole entry): as above

SMILES | agonist-induced iCa2+ in Gαq/11 KO cells [1] | Calcium signaling ECmax (%) (hGHSR1a^WT) | EC50 (hGHSR1a^WT) [nM] | Beta-arrestin translocation ECmax (%) [2] [%] | EC50 [2] [nM] | activity of re-synthesized molecule in words (hGHSR1a^WT; re-synthesized material) | potency and efficacy relative to L585 in words (hGHSR1a^WT; screening sample)
C[C@@H](O)CNC(C)(C)CC(=O)N[C@@H]1CCc2ccccc2N(Cc2ccc(-c3ccccc3-c3nn[nH]n3)cc2)C1=O [Example L626.585, reference compound] | abolished | 100 | 14.6 | 100 | 24 |  | 
CCOc1ccc(C2c3c(oc4ccc(C)cc4c3=O)C(=O)N2CCCN(C)C)cc1OC (centres unmarked) [NCGC00141956] |  | 105 | 332 | 107 | 2310 | could not be confirmed | sub-μM potency and full efficacy
